Data from US9493411B2 (AbbVie Inc., priority 2013, dated 2016).

Tests used:
[1] = molecular target: T1, BRD4 (BDI_K57-E168) (Homo sapiens, UniProt O60885); test: TR-FRET bromodomain binding assay, BRD4 first bromodomain; details: His-tagged BD1, Alexa647-labeled probe 100 nM; Ki calculated from IC50
T1 construct: BD1: amino acids K57-E168; made in house
Description: (§1) A time-resolved fluorescence resonance energy transfer (TR-FRET) assay was used to determine the affinities of compounds of the Examples listed in Table 1 for each bromodomain of BRD4. His-tagged first (BD1: amino acids K57-E168) and second (BD2: amino acids E352-E168) bromodomains of BRD4 were expressed and purified. An Alexa647-labeled BET-inhibitor was used as the fluorescent probe in the assay.
(§2) Compound dilution series were prepared in DMSO via a 3-fold serial dilution from 2.5 mM to 42 nM. Compounds were then diluted 6:100 in assay buffer (20 mM Sodium Phosphate, pH 6.0, 50 mM NaCl, 1 mM Ethylenediaminetetraacetic acid disodium salt dihydrate, 0.01% Triton X-100, 1 mM DL-Dithiothreitol) to yield 3× working solutions. Six microliters (μL) of the working solution was then transferred to white, low-volume assay plates (Costar #3673). A 1.5× assay mixture containing His-tagged bromodomain, Europium-conjugated anti-His antibody (Invitrogen PV5596) and the Alexa-647-conjugated probe molecule was also prepared. Twelve μL of this solution were added to the assay plate to reach a final volume of 18 μL. The final concentration of 1× assay buffer contains 2% DMSO, 50 μM-0.85 nM compound, 8 nM His-tagged bromodomain, 1 nM Europium-conjugated anti-His-tag antibody and 100 nM or 30 nM probe (for BDI or BDII, respectively). After a one-hour incubation at room temperature, TR-FRET ratios were determined using an Envision multilabel plate reader (Ex 340, Em […]).
(§3) TR-FRET data were normalized to the means of 24 no-compound controls (“high”) and 8 controls containing 1 μM un-labeled probe (“low”). Percent inhibition was plotted as a function of compound concentration and the data were fit with the 4 parameter logistic equation to obtain IC50s. Inhibition constants (Ki) were calculated from the IC50s, probe Kd and probe concentration. Typical Z′ values were between 0.65 and 0.75. The minimum significant ratio was determined to evaluate assay reproducibility (Eastwood et al., (2006) J Biomol Screen, 11: 253-261). The MSR was determined to be 2.03 for BDI and 1.93 for BDII, and a moving MSR (last six run MSR overtime) for both BDI and BDII was typically <3.

[2] = molecular target: T2, BRD4 (BDII_E352-M457) (Homo sapiens, UniProt O60885); test: TR-FRET bromodomain binding assay, BRD4 second bromodomain; details: His-tagged BD2, Alexa647-labeled probe 30 nM; Ki calculated from IC50
T2 construct: made in house
Description: as §1, §2, §3

| SMILES | Ki [1] [µM] | Ki [2] [µM] |
| --- | --- | --- |
| COc1ccc(CNc2ccccc2-c2cc(C(N)=O)c(C)[nH]2)cc1 [Example 30, 5-{2-[(4-methoxybenzyl)amino]phenyl}-2-methyl-1H-pyrrole-3-carboxamide] | 3.06 | 3.48 |
| Cc1[nH]c(-c2ccccc2NCc2ccc(Br)cc2)cc1C(N)=O [Example 32, 5-{2-[(4-bromobenzyl)amino]phenyl}-2-methyl-1H-pyrrole-3-carboxamide] | 5.17 | 10.3 |
| Cc1[nH]c(-c2ccccc2NCc2ccc(Cl)c(Cl)c2)cc1C(N)=O [Example 33, 5-{2-[(3,4-dichlorobenzyl)amino]phenyl}-2-methyl-1H-pyrrole-3-carboxamide] | 9.63 | 13.1 |
| Cc1[nH]c(-c2ccccc2NCc2ccccc2Cl)cc1C(N)=O [Example 34, 5-{2-[(2-chlorobenzyl)amino]phenyl}-2-methyl-1H-pyrrole-3-carboxamide] | 1.4 | 3.45 |
| Cc1[nH]c(-c2ccccc2NCc2cccc(Cl)c2)cc1C(N)=O [Example 35, 5-{2-[(3-chlorobenzyl)amino]phenyl}-2-methyl-1H-pyrrole-3-carboxamide] | 2.7 | 3.26 |
| Cc1[nH]c(-c2ccccc2NCc2ccc(N(C)C)cc2)cc1C(N)=O [Example 37, 5-(2-{[4-(dimethylamino)benzyl]amino}phenyl)-2-methyl-1H-pyrrole-3-carboxamide] | 4.68 | 3.58 |
| Cc1[nH]c(-c2ccccc2NCc2cc(Cl)cc(Cl)c2)cc1C(N)=O [Example 39, 5-{2-[(3,5-dichlorobenzyl)amino]phenyl}-2-methyl-1H-pyrrole-3-carboxamide] | 3.82 | 4.98 |
| CC(=O)Nc1ccc(CN(CC2CCCC2)c2ccccc2-c2cc(C(N)=O)c(C)[nH]2)cc1 [Example 59, 5-(2-{[4-(acetylamino)benzyl](cyclopentylmethyl)amino}phenyl)-2-methyl-1H-pyrrole-3-carboxamide] | 2.13 | 3.31 |
| Cc1[nH]c(-c2ccccc2N(Cc2cccs2)CC2CCCC2)cc1C(N)=O [Example 60, 5-{2-[(cyclopentylmethyl)(thiophen-2-ylmethyl)amino]phenyl}-2-methyl-1H-pyrrole-3-carboxamide] | 5.1 | 20.5 |
| Cc1[nH]c(-c2ccccc2NS(=O)(=O)c2ccccc2)cc1C(N)=O [Example 78, 2-methyl-5-{2-[(phenylsulfonyl)amino]phenyl}-1H-pyrrole-3-carboxamide] | 3.99 | 0.712 |
| Cc1[nH]c(-c2ccccc2NS(=O)(=O)c2cccnc2)cc1C(N)=O [Example 80, 2-methyl-5-{2-[(pyridin-3-ylsulfonyl)amino]phenyl}-1H-pyrrole-3-carboxamide] | 9.39 | 13.4 |
| Cc1[nH]c(-c2ccccc2Oc2ccccc2)cc1C(N)=O [Example 89, 2-methyl-5-(2-phenoxyphenyl)-1H-pyrrole-3-carboxamide] | 0.122 | 0.351 |
| Cc1[nH]c(-c2c(N)cccc2Oc2ccccc2)cc1C(N)=O [Example 91, 5-(2-amino-6-phenoxyphenyl)-2-methyl-1H-pyrrole-3-carboxamide] | 0.331 | 3.35 |
| Cc1noc(C)c1-c1ccc(-c2cc(C(N)=O)c(C)[nH]2)cc1 [Example 92, 5-[4-(3,5-dimethyl-1,2-oxazol-4-yl)phenyl]-2-methyl-1H-pyrrole-3-carboxamide] | 1.69 | 2.43 |
| COC(=O)CCNC(=O)c1cc(-c2ccc(-c3c(C)noc3C)cc2)[nH]c1C [Example 93, methyl N-({5-[4-(3,5-dimethyl-1,2-oxazol-4-yl)phenyl]-2-methyl-1H-pyrrol-3-yl}carbonyl)-beta-alaninate] | 5.09 | 6.42 |
| COC(=O)CNC(=O)c1cc(-c2ccc(-c3c(C)noc3C)cc2)[nH]c1C [Example 94, methyl N-({5-[4-(3,5-dimethyl-1,2-oxazol-4-yl)phenyl]-2-methyl-1H-pyrrol-3-yl}carbonyl)glycinate] | 4.82 | 21.5 |
| Cc1noc(C)c1-c1ccc(-c2cc(C(=O)NO)c(C)[nH]2)cc1 [Example 95, 5-[4-(3,5-dimethyl-1,2-oxazol-4-yl)phenyl]-N-hydroxy-2-methyl-1H-pyrrole-3-carboxamide] | 5.07 | 5.62 |
| CCOC(=O)CCN(Cc1ccccc1)C(=O)c1cc(-c2ccc(-c3c(C)noc3C)cc2)[nH]c1C [Example 96, ethyl N-benzyl-N-({5-[4-(3,5-dimethyl-1,2-oxazol-4-yl)phenyl]-2-methyl-1H-pyrrol-3-yl}carbonyl)-beta-alaninate] | 3.19 | 21.5 |
| Cc1[nH]c(-c2ccc(-c3cccc(O)c3)cc2)cc1C(N)=O [Example 98, 5-(3′-hydroxybiphenyl-4-yl)-2-methyl-1H-pyrrole-3-carboxamide] | 11.3 | 7.01 |

Continued, values first:

| Ki [1] [µM] | Ki [2] [µM] | SMILES |
| --- | --- | --- |
| 1.4 | 6.23 | Cc1[nH]c(-c2ccccc2NCc2ccc(C#N)cc2)cc1C(N)=O [Example 31, 5-{2-[(4-cyanobenzyl)amino]phenyl}-2-methyl-1H-pyrrole-3-carboxamide] |
| 0.521 | 1.16 | Cc1[nH]c(-c2ccccc2NCC2CCCCC2)cc1C(N)=O [Example 36, 5-{2-[(cyclohexylmethyl)amino]phenyl}-2-methyl-1H-pyrrole-3-carboxamide] |
| 0.48 | 16.5 | Cc1[nH]c(-c2ccccc2NCC2CCN(C(=O)OC(C)(C)C)CC2)cc1C(N)=O [Example 41, tert-butyl 4-({[2-(4-carbamoyl-5-methyl-1H-pyrrol-2-yl)phenyl]amino}methyl)piperidine-1-carboxylate] |
| 3.08 | 16.4 | Cc1[nH]c(-c2ccccc2NCc2ccc(N)cc2)cc1C(N)=O [Example 52, 5-{2-[(4-aminobenzyl)amino]phenyl}-2-methyl-1H-pyrrole-3-carboxamide] |
| 0.722 | 4.94 | Cc1[nH]c(-c2ccccc2NCc2ccc(CO)o2)cc1C(N)=O [Example 55, 5-[2-({[5-(hydroxymethyl)furan-2-yl]methyl}amino)phenyl]-2-methyl-1H-pyrrole-3-carboxamide] |
| 0.634 | 12.2 | Cc1[nH]c(-c2ccccc2NC2CCNCC2)cc1C(N)=O [Example 65, 2-methyl-5-[2-(piperidin-4-ylamino)phenyl]-1H-pyrrole-3-carboxamide] |
| 1.76 | 6.15 | Cc1[nH]c(-c2ccccc2NC2CCC2)cc1C(N)=O [Example 66, 5-[2-(cyclobutylamino)phenyl]-2-methyl-1H-pyrrole-3-carboxamide] |
| 0.663 | 2.34 | Cc1[nH]c(-c2ccccc2NC2Cc3ccccc3C2)cc1C(N)=O [Example 69, 5-[2-(2,3-dihydro-1H-inden-2-ylamino)phenyl]-2-methyl-1H-pyrrole-3-carboxamide] |
| 0.862 | 3.83 | Cc1[nH]c(-c2ccccc2NC2CCCCCC2)cc1C(N)=O [Example 73, 5-[2-(cycloheptylamino)phenyl]-2-methyl-1H-pyrrole-3-carboxamide] |
| 0.526 | 1.65 | Cc1[nH]c(-c2ccccc2NC2CCc3ccccc3C2)cc1C(N)=O (stereo not drawn) [Example 74, 2-methyl-5-[2-(1,2,3,4-tetrahydronaphthalen-2-ylamino)phenyl]-1H-pyrrole-3-carboxamide] |
| 0.172 | 0.983 | Cc1[nH]c(-c2ccccc2Nc2ccccc2)cc1C(N)=O [Example 77, 2-methyl-5-[2-(phenylamino)phenyl]-1H-pyrrole-3-carboxamide] |
| 0.904 | 2.65 | Cc1[nH]c(-c2ccccc2NS(=O)(=O)C2CCCCC2)cc1C(N)=O [Example 79, 5-{2-[(cyclohexylsulfonyl)amino]phenyl}-2-methyl-1H-pyrrole-3-carboxamide] |
| 2.96 | 8.72 | Cc1[nH]c(-c2ccccc2NS(=O)(=O)CCC(F)(F)F)cc1C(N)=O [Example 82, 2-methyl-5-(2-{[(3,3,3-trifluoropropyl)sulfonyl]amino}phenyl)-1H-pyrrole-3-carboxamide] |
| 3.03 | 2.6 | Cc1[nH]c(-c2ccccc2NS(=O)(=O)CC(F)(F)F)cc1C(N)=O [Example 86, 2-methyl-5-(2-{[(2,2,2-trifluoroethyl)sulfonyl]amino}phenyl)-1H-pyrrole-3-carboxamide] |
